Patent publication US7151200B2, “Histamine receptor H3 modified transgenic mice” (Ortho-McNeil Pharmaceutical, Inc., priority 2001, dated 2006)
“Also recorded” adds a separate entry of the source. Read-outs that look alike come from different tables or passages of the source.

How the values were obtained:
[1] = tested on: H3 receptor; conditions: for binding detected: mouse brain homogenates (H3−/− by context), even at high (>100 nM) concentrations; for Kd: read-out: binding affinity, whole brain homogenates
Description: The mice were sacrificed by gas (CO2) and decapitated immediately. Brains were removed stored at −80° C. until use. The forebrain and the cerebellum tissue homogenized with a polytron in ice-cold 50 mM Na/K phosphate buffer, pH 7.5. The homogenates were centrifuged twice at 50,000×g for twenty minutes at 4° C.
The histamine H3 receptor binding was assayed by a modification of the method of Arrang et al. (1983) supra. Briefly, to examine inhibition curves, 0.4 ml aliquots of the suspensions (10 mg weight tissue) were incubated for sixty minutes at 25° C. with 1.5 nM [^3H]-R-alpha-MeHA. Specific binding was defined as that inhibited by 10 μM thioperamide. That reaction was terminated by addition of 5 ml of the ice-cold buffer and rapid filtration on a glass fiber filter (GF/B) pre-coated with 0.3% polyethyleneimine (Bruns et al., 1983). The filters were washed three times with 5 ml volumes of the ice-cold buffer, and the radioactivity trapped on the filters was counted in 10 ml of ScintiVerse (Fisher Scientific).

[2] = tested on: H3+/+ and H3−/− mice; test: Step-through passive avoidance test with scopolamine-induced amnesia; type: in vivo, mouse; conditions: scopolamine 0.75 mg/kg i.p. before first exposure, retest next day
Excerpt: The apparatus consisted of two compartments; one (9.5×18.5×16 cm) being surrounded by a white wall and illuminated by a 60 watt lamp, and the other (9.5×18.5×16 cm) being dark surrounded by a black wall. The compartments were separated by a guillotine door (4.5 5 4.5 cm). All the mice were habituated to the dark chamber for sixty minutes prior to the test. On the first day of the passive avoidance test, wild-type and knockout mice were divided into two groups. One group of each genotype was injected with scopolamine (0.75 mg/kg, i.p., thirty minutes before the session) while the other groups were injected with biological saline, 0.9% (w/v) NaCl, ([…], i.p.). The mice were placed into the illuminated safe compartment for thirty seconds before being given free access to the dark box. The mice tended to escape into the dark compartment. When all four paws were on the grid floor of the dark compartment, a scrambled constant current foot shock (1 mA, constant voltage 120 V, 50 Hz) was delivered to the grid for one second. Then the mice were returned to their home cages. Twenty-four hours later, the procedure, without the electric shock, was repeated. The time that elapsed before each mouse entered the dark compartment was measured.

[3] = tested on: H3 receptor; type: in vivo, mouse
Description: Individually housed animals were maintained on a 12:12 light/dark (LD) cycle except in one study when the animals were transferred to constant darkness (DD). At three months of age, animals were implanted under deep anesthesia (ketamine 100 mg/kg and xylamine 10 mg/kg administered intraperitoneally) with EEG and EMG electrodes for sleep monitoring, and intraperitoneal biotelemetry transducers for the recording of body temperature and total locomotor activity. Two weeks after surgery and habituation to the recording chamber, body temperature and locomotor activity were monitored in baseline conditions for two consecutive days. In order to test the functional activity of H3 receptors, the effects of the H3 receptor antagonist thioperamide on sleep-wake states were examined. Mice were injected with saline one day, and thioperamide the next day. Injections occurred at the onset of the light phase and sleep EEG was recorded for the next six hours. A second group of H3+/+ and H3−/− mice were placed in running wheel cages at three months of age. Locomotor activity was recorded for three weeks under LD12:12 conditions and then the animals were transferred to constant darkness for two weeks.

[4] = H3+/+ mice, two-hour post injection period

[3H]CNCCc1cnc[nH]1 [^3H-N-α-methylhistamine]
binding detected [1]: No binding could be detected

NCCc1cnc[nH]1 [^3H-histamine]
binding detected [1]: No binding could be detected

CN1[C@@H]2C[C@@H](OC(=O)[C@H](CO)c3ccccc3)C[C@H]1[C@@H]1O[C@@H]12 [scopolamine]
recall of aversive stimulus (amnesic effect) in passive avoidance ([2]; H3+/+ mice): failed to recall the aversive stimulus | response to amnesic effect in passive avoidance ([2]; H3−/− mice): decreased sensitivity; also recorded: completely unresponsive to the amnesic effects

S=C(NC1CCCCC1)N1CCC(c2cnc[nH]2)CC1 [thioperamide]
increase in waking ([3]; H3+/+ mice, first two hours after administration at lights on): 55% | decrease in non-rapid eye movement (NREM) sleep [3, 4]: 61% | effect on REM sleep [3, 4]: not affected | effects on sleep-wake status ([3]; H3−/− mice): no effects; also recorded: insensitive
